Reference: ChEMBL document CHEMBL4257548, “Phenothiazine antioxidants increase mitochondrial biogenesis and frataxin levels in Friedreich's ataxia cells” (Medchemcomm, 2018)
Calls of active or inactive are those of the source. The rule behind the calls is not given here.

Key:
[1] = system: GM15850; assay: Induction of mitochondrial biogenesis in human GM15850 cells assessed as ratio of COX1 to SDH-A protein levels at 50 after 48 hrs by ELISA relative to control; format: functional
[2] = system: GM16216; assay: Effect on mitochondrial membrane potential in human GM16216 cells assessed as intact mitochondrial membrane at 0.25 uM after 16 hrs by JC1 staining based flow cytometry (reference value: 87%); format: functional
[3] = system: GM15850; assay: Restoration of total aconitase activity in human GM15850 cells at 250 nM after 5 days by colorimetric method relative to control; format: functional
[4] = system: GM16216; assay: Induction of mitochondrial biogenesis in human GM16216 cells assessed as ratio of COX1 to SDH-A protein levels at 50 after 48 hrs by ELISA relative to control; format: functional
[5] = system: GM15850; assay: Effect on frataxin expression in human GM15850 cells at 250 nM after 24 hrs by ELISA relative to control; format: functional
[6] = system: GM15850; assay: Effect on mitochondrial membrane potential in human GM15850 cells assessed as intact mitochondrial membrane at 0.25 uM after 16 hrs by JC1 staining based flow cytometry (reference value: 87%); format: functional
[7] = system: GM16216; assay: Effect on frataxin expression in human GM16216 cells at 250 nM after 24 hrs by ELISA relative to control; format: functional
[8] = system: GM15850; assay: Effect on frataxin expression in human GM15850 cells at 50 nM after 24 hrs by ELISA relative to control; format: functional
[9] = system: GM16216; assay: Restoration of total aconitase activity in human GM16216 cells at 250 nM after 5 days by colorimetric method relative to control; format: functional
[10] = system: GM15850; assay: Induction of mitochondrial biogenesis in human GM15850 cells assessed as ratio of COX1 to SDH-A protein levels at 50 after 24 hrs by ELISA relative to control; format: functional
[11] = system: GM16216; assay: Effect on mitochondrial membrane potential in human GM16216 cells assessed as loss of mitochondrial membrane potential at 0.25 uM after 16 hrs by JC1 staining based flow cytometry (reference value: 13%); format: functional
[12] = system: GM15850; assay: Induction of mitochondrial biogenesis in human GM15850 cells assessed as ratio of COX1 to SDH-A protein levels at 250 after 24 hrs by ELISA relative to control; format: functional
[13] = system: GM15850; assay: Cytoprotection against DEM-induced toxicity in human GM15850 cells assessed as increase in cell viability at 0.1 to 2.5 uM pretreated for 16 hrs followed by DEM addition and measured after 5 hrs by live/dead staining based flow cytometry; format: functional
[14] = system: GM16216; assay: Induction of mitochondrial biogenesis in human GM16216 cells assessed as ratio of COX1 to SDH-A protein levels at 50 after 24 hrs by ELISA relative to control; format: functional
[15] = system: GM16216; assay: Effect on frataxin expression in human GM16216 cells at 50 nM after 48 hrs by ELISA relative to control; format: functional
[16] = system: GM16216; assay: Effect on frataxin expression in human GM16216 cells at 250 nM after 48 hrs by ELISA relative to control; format: functional
[17] = system: GM16216; assay: Induction of mitochondrial biogenesis in human GM16216 cells assessed as ratio of COX1 to SDH-A protein levels at 250 after 24 hrs by ELISA relative to control; format: functional
[18] = system: GM15850; assay: Effect on frataxin expression in human GM15850 cells at 50 nM after 48 hrs by ELISA relative to control; format: functional
[19] = system: GM16216; assay: Induction of mitochondrial biogenesis in human GM16216 cells assessed as ratio of COX1 to SDH-A protein levels at 250 after 48 hrs by ELISA relative to control; format: functional
[20] = system: GM15850; assay: Effect on frataxin expression in human GM15850 cells at 250 nM after 48 hrs by ELISA relative to control; format: functional
[21] = system: GM16216; assay: Cytoprotection against DEM-induced toxicity in human GM16216 cells assessed as increase in cell viability at 0.1 to 2.5 uM pretreated for 16 hrs followed by DEM addition and measured after 5 hrs by live/dead staining based flow cytometry; format: functional
[22] = system: GM15850; assay: Restoration of total aconitase activity in human GM15850 cells at 50 nM after 5 days by colorimetric method relative to control; format: functional
[23] = system: GM15850; assay: Effect on mitochondrial membrane potential in human GM15850 cells assessed as loss of mitochondrial membrane potential at 0.25 uM after 16 hrs by JC1 staining based flow cytometry (reference value: 13%); format: functional
[24] = system: GM15850; assay: Induction of mitochondrial biogenesis in human GM15850 cells assessed as ratio of COX1 to SDH-A protein levels at 250 after 48 hrs by ELISA relative to control; format: functional
[25] = system: GM16216; assay: Restoration of total aconitase activity in human GM16216 cells at 50 nM after 5 days by colorimetric method relative to control; format: functional
[26] = system: GM16216; assay: Effect on frataxin expression in human GM16216 cells at 50 nM after 24 hrs by ELISA relative to control; format: functional
[27] = system: GM15850; assay: Cytotoxicity against human GM15850 cells at 0.25 to 2.5 uM after 24 to 48 hrs by live/dead staining-based flow cytometry; format: cell-based; conditions: gm15850, 2.5 µM
[28] = system: GM15850; assay: Cytoprotection against DEM-induced toxicity in human GM15850 cells assessed as increase in cell viability pretreated for 16 hrs followed by DEM addition and measured after 5 hrs by live/dead staining based flow cytometry; format: functional
[29] = system: GM16216; assay: Cytoprotection against DEM-induced toxicity in human GM16216 cells assessed as increase in cell viability pretreated for 16 hrs followed by DEM addition and measured after 5 hrs by live/dead staining based flow cytometry; format: functional
[30] = system: GM15850; assay: Increase in ATP production in human GM15850 cells at 0.1 to 0.5 uM after 24 hrs by Vialight reagent based luminescence assay; format: functional, cell-based
[31] = system: GM16216; assay: Induction of mitochondrial biogenesis in human GM16216 cells assessed as increase in ratio of COX1 to SDH-A protein levels at 50 to 250 nM after 24 to 48 hrs by ELISA; format: functional, cell-based
[32] = system: GM16216; assay: Inhibition of ATP production in human GM16216 cells at 2.5 uM after 24 hrs by Vialight reagent based luminescence assay; format: functional, cell-based
[33] = system: GM16216; assay: Cytotoxicity against human GM16216 cells at 0.25 to 2.5 uM after 24 to 48 hrs by live/dead staining-based flow cytometry; format: cell-based; conditions: gm16216, 2.5 µM
[34] = system: GM15850; assay: Increase in frataxin expression in human GM15850 cells at 50 to 250 nM after 24 to 48 hrs by ELISA; format: functional, cell-based
[35] = system: GM16216; assay: Increase in ATP production in human GM16216 cells at 0.1 to 0.5 uM after 24 hrs by Vialight reagent based luminescence assay; format: functional, cell-based
[36] = system: GM15850; assay: Restoration of total aconitase activity in human GM15850 cells after 5 days by colorimetric method; format: functional, cell-based
[37] = system: GM15850; assay: Inhibition of ATP production in human GM15850 cells at 2.5 uM after 24 hrs by Vialight reagent based luminescence assay; format: functional, cell-based
[38] = system: GM15850; assay: Induction of mitochondrial biogenesis in human GM15850 cells assessed as increase in ratio of COX1 to SDH-A protein levels at 50 to 250 nM after 24 to 48 hrs by ELISA; format: functional, cell-based
[39] = system: GM16216; assay: Increase in frataxin expression in human GM16216 cells at 50 to 250 nM after 24 to 48 hrs by ELISA; format: functional, cell-based
[40] = system: GM16216; assay: Effect on ATP production in human GM16216 cells at 0.1 to 0.5 uM after 24 hrs by Vialight reagent based luminescence assay; format: functional, cell-based
[41] = system: GM15850; assay: Effect on ATP production in human GM15850 cells at 0.1 to 0.5 uM after 24 hrs by Vialight reagent based luminescence assay; format: functional, cell-based

SMILES	Activity [1] [%]	Activity [2] [%]	Activity [3] [%]	Activity [4] [%]	Activity [5] [%]	Activity [6] [%]	Activity [7] [%]	Activity [8] [%]	Activity [9] [%]	Activity [10] [%]	Activity [11] [%]	Activity [12] [%]	Activity [14] [%]	Activity [15] [%]	Activity [16] [%]	Activity [17] [%]	Activity [18] [%]	Activity [19] [%]	Activity [20] [%]	Activity [23] [%]	other results
CN(C)c1ccc2nc3ccc(=O)cc-3sc2c1	122	85	113	122	114	85	114	111	113	115	15	117	115	113	115	117	113	131	115	15	Activity [13]: Active; Activity [21]: Active; Activity [22]: 110%; Activity [24]: 131%; Activity [25]: 110%; Activity [26]: 111%
CCCCCCCCCCCCCCCCc1cc2nc3ccc(N(C)C)cc3sc-2cc1=O	132	88	124	132	127	88	127	120	124	127	12	132	127	124	131	132	124	139	131	12	Activity [27]: Non-Toxic; Activity [28]: Dose-dependent effect; Activity [29]: Dose-dependent effect; Activity [30]: Active; Activity [31]: Active; inhibition [32]: Active; Activity [33]: Non-Toxic; Activity [34]: Active; Activity [35]: Active; Activity [36]: Dose-dependent effect; inhibition [37]: Active; Activity [38]: Active; Activity [39]: Active; Activity [22]: 121%; Activity [24]: 139%; Activity [25]: 121%; Activity [26]: 120%
CCCCCCCCCCCCCc1cc2nc3ccc(N(C)C)cc3sc-2cc1=O		87				87					13									13	Activity [27]: Non-Toxic; Activity [40]: inactive; Activity [31]: Active; inhibition [32]: Active; Activity [33]: Non-Toxic; Activity [41]: inactive; Activity [34]: Active; inhibition [37]: Active; Activity [38]: Active; Activity [39]: Active
